pIC50: −log10 of the molar value. Calls of active or inactive are those of the source. The calls are words filed in the database; no cut-off is given here.
Key:
HeLa [1] = assay: Induction of intracellular protein degradation in human HeLa cells expressing androgen receptor assessed as decrease in total AR protein levels at 10 uM after 7 hrs by Western blot; assay type: functional, cell-based
HeLa [2] = assay: Inhibition of intracellular protein degradation in human HeLa cells expressing androgen receptor assessed as effect on total AR protein levels at 10 uM after 7 hrs by Western blot in presence of epoxomicin; assay type: functional, cell-based
[3] = biological target: E3 ubiquitin-protein ligase Mdm2 (Homo sapiens, UniProt Q00987); assay: Binding affinity to MDM2
E3 ubiquitin-protein ligase Mdm2, sequence (Q00987 whole entry): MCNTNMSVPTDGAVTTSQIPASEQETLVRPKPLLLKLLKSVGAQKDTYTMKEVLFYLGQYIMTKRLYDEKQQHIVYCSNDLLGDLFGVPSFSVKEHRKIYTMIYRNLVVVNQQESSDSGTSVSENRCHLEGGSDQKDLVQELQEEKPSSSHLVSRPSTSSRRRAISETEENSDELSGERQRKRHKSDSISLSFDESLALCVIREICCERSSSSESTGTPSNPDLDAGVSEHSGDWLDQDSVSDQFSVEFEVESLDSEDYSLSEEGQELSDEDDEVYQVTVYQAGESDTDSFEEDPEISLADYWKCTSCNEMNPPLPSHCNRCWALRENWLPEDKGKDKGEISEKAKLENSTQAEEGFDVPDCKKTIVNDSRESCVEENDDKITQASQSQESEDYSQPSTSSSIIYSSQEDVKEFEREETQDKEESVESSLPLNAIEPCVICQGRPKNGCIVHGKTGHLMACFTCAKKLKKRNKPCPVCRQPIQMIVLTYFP

| pIC50 [3] | SMILES | Activity (HeLa [1]) | Activity (HeLa [2]) |
| --- | --- | --- | --- |
|  | COc1ccc(C2=N[C@H](c3ccc(Cl)cc3)[C@H](c3ccc(Cl)cc3)N2C(=O)N2CCN(CC(=O)NCCOCCOCCOCC(=O)Nc3ccc(OC[C@](C)(O)C(=O)Nc4ccc([N+](=O)[O-])c(C(F)(F)F)c4)cc3)C(=O)C2)c(OC(C)C)c1 | Active | Active |
| 7.05 | COc1ccc(C2=NC(c3ccc(Cl)cc3)C(c3ccc(Cl)cc3)N2)c(OC(C)C)c1 (stereo not drawn) |  |  |

— ChEMBL document CHEMBL1153888, “Targeted intracellular protein degradation induced by a small molecule: En route to chemical proteomics” (Bioorg Med Chem Lett, 2008)
